Drawing on ChEMBL document CHEMBL5725365, “Tyrosine kinase inhibitors” (2017), this text covers IC50 for one compound.

The assay concerns the target Tyrosine-protein kinase BTK (Homo sapiens, UniProt Q06187). Description: Enzymatic Activity Assay: A Caliper-based kinase assay (Caliper Life Sciences, Hopkinton, Mass.) was used to measure inhibition of BTK kinase activity of a compound of the present disclosure. Serial dilutions of test compounds were incubated with human recombinant BTK (0.5 nM), ATP (16 μM) and a phosphoacceptor peptide substrate FAM-[…]-NH2(1 μM) at room temperature for 3 h. The reaction was then terminated with EDTA, final concentration 20 mM and the phosphorylated reaction product was quantified on a Caliper Desktop Profiler (Caliper LabChip 3000).

Sequence of Tyrosine-protein kinase BTK (Q06187 whole entry): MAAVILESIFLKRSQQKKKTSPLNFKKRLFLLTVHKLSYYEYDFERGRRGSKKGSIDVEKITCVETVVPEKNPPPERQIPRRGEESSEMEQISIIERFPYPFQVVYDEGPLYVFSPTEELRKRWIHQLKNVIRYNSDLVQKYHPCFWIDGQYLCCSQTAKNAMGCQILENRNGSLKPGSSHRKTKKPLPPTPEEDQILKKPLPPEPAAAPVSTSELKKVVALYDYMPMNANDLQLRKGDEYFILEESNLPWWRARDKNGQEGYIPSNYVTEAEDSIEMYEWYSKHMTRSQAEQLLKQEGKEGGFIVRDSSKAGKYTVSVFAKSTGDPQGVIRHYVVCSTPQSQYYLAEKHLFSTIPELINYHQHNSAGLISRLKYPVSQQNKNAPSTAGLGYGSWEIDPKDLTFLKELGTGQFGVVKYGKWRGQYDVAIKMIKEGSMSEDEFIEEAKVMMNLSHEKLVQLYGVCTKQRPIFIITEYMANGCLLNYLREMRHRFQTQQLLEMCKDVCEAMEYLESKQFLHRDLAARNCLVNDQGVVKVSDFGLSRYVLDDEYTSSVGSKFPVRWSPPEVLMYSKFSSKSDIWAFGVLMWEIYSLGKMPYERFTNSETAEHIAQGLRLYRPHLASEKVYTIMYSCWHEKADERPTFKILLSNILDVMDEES

`CC(C)(C=C(C#N)C(=O)N1CCC[C@@H](n2c(=O)n(-c3ccc(Oc4ccccc4)cc3)c3c(N)nccc32)C1)C(=O)N1CCN(C2COC2)CC1`: the IC50 worked out at 24 nM.
